For data set [1], the target named is T1, DCAF1(WDR) (Homo sapiens, UniProt Q9Y4B6, E1398S).
T1 construct: His6 (C); made in house; host or cells: Sf9 insect cells (baculovirus), co-expressed with BirA
The data set can be described thus: SPR, surface immobilized DCAF1(WDR), binary compound binding. Particulars: for Kd: binary, compound alone, spread in brackets, read-out: SPR KD. On the technique in general: Surface plasmon resonance follows binding to a sensor surface in real time, without labels.

In data set [2] the target is T1, DCAF1(WDR). Briefly: DCAF1 TR-FRET competition assay, standard binary format. It counts as binding. Particulars: for IC50: binary. The method, then:
Competition assay conditions consist of 20 µL total volume in white 384-well plates (Greiner), in 30 mM phosphate buffer pH 7.4 containing 140 mM NaCl, 0.01% Tween20, 1 mM TCEP and 1% final DMSO. Tested compounds at 14 different concentrations were pre-incubated at 22 °C for 30 min with a large excess of 10 µM human BTK (G389-S659) or 10 µM human BRD9-BD(130-250) in the cooperative assay or with buffer in standard binary assay. […] Samples were then incubated at 22 °C for 30 min before reading using a Tecan infinite M-1000 or PheraStar FSX (excitation 340 nm, emission 490 and 520 nm). DCAF1 protein was omitted in the negative control. IC50 fitting was carried out using an in-house developed software (Novartis Helios software application, unpublished, a publicly available alternative would be e.g., Graphpad Prism) using the methods described by Fomenko et al.[93] (regression algorithms for nonlinear dose-response curve fitting). Following normalization of activity values for the wells to % inhibition (% inhibition = [(high control-sample)/(high control-low control)] × 100). Data analysis could also be carried out using GraphPad Prism without prior normalization. The reported IC50 values are the average of at least two independent experiments.
Background: In TR-FRET formats the signal depends on donor and acceptor labels being close together.

The target in the next data set is T2, BRD9 (Homo sapiens, UniProt Q9H8M2).
T2 sequence (Q9H8M2 1-597): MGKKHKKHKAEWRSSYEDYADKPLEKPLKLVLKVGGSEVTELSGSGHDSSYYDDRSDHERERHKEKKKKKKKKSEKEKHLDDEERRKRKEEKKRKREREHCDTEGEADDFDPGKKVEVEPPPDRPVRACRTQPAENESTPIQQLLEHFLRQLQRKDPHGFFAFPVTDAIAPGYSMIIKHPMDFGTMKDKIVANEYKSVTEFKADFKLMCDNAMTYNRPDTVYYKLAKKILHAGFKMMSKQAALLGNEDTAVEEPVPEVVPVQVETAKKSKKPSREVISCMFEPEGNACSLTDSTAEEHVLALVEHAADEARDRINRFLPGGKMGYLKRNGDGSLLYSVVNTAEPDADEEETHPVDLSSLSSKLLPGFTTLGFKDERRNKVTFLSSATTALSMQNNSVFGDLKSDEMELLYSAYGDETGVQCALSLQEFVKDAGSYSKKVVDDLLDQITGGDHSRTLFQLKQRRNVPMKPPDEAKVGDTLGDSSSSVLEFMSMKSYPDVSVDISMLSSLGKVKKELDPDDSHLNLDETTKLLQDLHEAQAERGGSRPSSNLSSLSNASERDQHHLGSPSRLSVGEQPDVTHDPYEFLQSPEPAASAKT
Briefly: Rescue of DBr-1 mediated BRD9 degradation by co-treatment, BRD9-HiBiT HEK293 cells. It counts as cell-based. Set-up: host or cells: HEK293/BRD9-HiBiT knock-in; clone and BRD9-HiBiT/CAS9/FF clone. Particulars: (13) 1 µM, OICR8268 10 µM, BI-9564 10 µM. The method, then:
Supplementary figure 4. Competition experiments with DBr-1 and DBr-1-N […]
a) BRD9-HiBiT signal detection of samples pretreated with either DMSO, 10µM OICR-8268, 1µM […]
Data represents average ± standard deviation from n=3 replicates. DC50 values and […]
maximal observed degradation are shown below. […]
b) Cell titer Glow assay of BRD9 HiBiT cells. Cells pretreated with either DMSO, 10µM OICR-8268, […]
Data represents average ± standard deviation from n=3 replicates.
Source data are provided as a Source Data file
(HiBiT is a short tag that completes a luciferase, so light tracks the accessible tagged protein.)

Data set [3] is described as follows: Viability by FSC/SSC gate (flow cytometry) in TMD8 BTK-GFP/mCh cells. It counts as cell-based, human. Set-up: Max dose w/ Gating Viability >25%: unit: µM. Particulars: human, TMD8 BTK-GFP/mCh cells, TMD8 BTK-GFP/mCh, 24 h. The method, then:
(§1) For flow cytometry measurements, 25,000 exponentially growing TMD8 BTK-GFP/mCh cells were plated in 100 μL of each well of a 96-well plate and grown for 24 h. Cells were then dosed with corresponding compounds and doses from 10 mM DMSO stock for 24 h, after which GFP and mCherry fluorescence was read with a Beckmann Coulter Cytoflex. For competition experiment, both compounds were added at the same time and dosed for 24 h. Cells were gated based on Forward & Side Scatter and selection for Single cells using SSC-A vs. SSC-H. Further, the population of viable cells was defined by the forward & side-scatter characteristics of DMSO-treated cells. […] Effects on viability were measured by the reduction of the percentage of cells included in this viable-population gate with increasing doses of compound tested. Degradation of BTK was calculated based on subtracting background (BG) fluorescence of parental TMD8 signal via (GFP-BG)/(mCherry-BG) of viable cells. Median ratios of three technical (different wells) replicates were used to calculate daily averages. Each compound dose–response was generated via three biological replicates (different days of experiment). Degradation curve parameters (DC50 & Abs. DC50 & max. Deg) were extracted using GraphPad Prism’s 4-parameter logistic curve fitting.
(§2) The viability window was determined by measuring the GI50 of viability based on the percentage of cells included in the viable gate and comparing it to the DC50 of degradation. The fold-change difference describing this window is [GI50 Viability / DC50 Degradation], where values above 1 indicate a positive (lower DC50 degradation than AC50 viability) window.

For another data set, the system named is TMD8 BTK-GFP/mCh cells. The data set is described as above. It counts as cell-based, human. Also noted: Max dose w/ Gating Viability >25%: unit: µM. Particulars: TMD8 BTK-GFP/mCh, 24 h. The method, then:
as §1, §2

For the next data set, the target named is BTK (Homo sapiens, UniProt Q06187). The data set can be described thus: BTK-GFP degradation by flow cytometry in TMD8 BTK-GFP/mCh cells. Particulars: TMD8 BTK-GFP/mCh, 24 h; for DC50: read-out: DC50 BTK-Degradation. Set-up: performed with full-length BTK and endogenous DCAF1; expressed in transfected cells; host or cells: TMD8 cells, lentiviral, blasticidin-selected (TMD8 BTK-GFP/mCh). It counts as cell-based. The method, then:
The bicistronic pLenti6 BTK-GFP-chysel-mCHERRY expression vector was cloned as described[92] using Gateway cloning with a pENTR-BTK plasmid lacking a STOP codon. TMD8 cells were then infected with lentiviral particles from this vector as described above and stably transfected cells were selected with blasticidin at a concentration of 10 μg/mL referred to as TMD8 BTK-GFP/mCh cells.
For flow cytometry measurements, 25,000 exponentially growing TMD8 BTK-GFP/mCh cells were plated in 100 μL of each well of a 96-well plate and grown for 24 h. Cells were then dosed with corresponding compounds and doses from 10 mM DMSO stock for 24 h, after which GFP and mCherry fluorescence was read with a Beckmann Coulter Cytoflex. For competition experiment, both compounds were added at the same time and dosed for 24 h. Cells were gated based on Forward & Side Scatter and selection for Single cells using SSC-A vs. SSC-H. Further, the population of viable cells was defined by the forward & side-scatter characteristics of DMSO-treated cells. To confirm cells outside of this population as non-viable, cells were plated and treated for 24 h, washed with PBS and stained for 30 min with two markers of early (Annexin-V) and late (LIVE/DEAD) apoptosis. Effects on viability were measured by the reduction of the percentage of cells included in this viable-population gate with increasing doses of compound tested. Degradation of BTK was calculated based on subtracting background (BG) fluorescence of parental TMD8 signal via (GFP-BG)/(mCherry-BG) of viable cells. Median ratios of three technical (different wells) replicates were used to calculate daily averages. Each compound dose–response was generated via three biological replicates (different days of experiment). Degradation curve parameters (DC50 & Abs. DC50 & max. Deg) were extracted using GraphPad Prism’s 4-parameter logistic curve fitting.

The target of a further data set is T3, BRD7 (Homo sapiens, UniProt Q9NPI1).
T3 sequence (Q9NPI1 1-651): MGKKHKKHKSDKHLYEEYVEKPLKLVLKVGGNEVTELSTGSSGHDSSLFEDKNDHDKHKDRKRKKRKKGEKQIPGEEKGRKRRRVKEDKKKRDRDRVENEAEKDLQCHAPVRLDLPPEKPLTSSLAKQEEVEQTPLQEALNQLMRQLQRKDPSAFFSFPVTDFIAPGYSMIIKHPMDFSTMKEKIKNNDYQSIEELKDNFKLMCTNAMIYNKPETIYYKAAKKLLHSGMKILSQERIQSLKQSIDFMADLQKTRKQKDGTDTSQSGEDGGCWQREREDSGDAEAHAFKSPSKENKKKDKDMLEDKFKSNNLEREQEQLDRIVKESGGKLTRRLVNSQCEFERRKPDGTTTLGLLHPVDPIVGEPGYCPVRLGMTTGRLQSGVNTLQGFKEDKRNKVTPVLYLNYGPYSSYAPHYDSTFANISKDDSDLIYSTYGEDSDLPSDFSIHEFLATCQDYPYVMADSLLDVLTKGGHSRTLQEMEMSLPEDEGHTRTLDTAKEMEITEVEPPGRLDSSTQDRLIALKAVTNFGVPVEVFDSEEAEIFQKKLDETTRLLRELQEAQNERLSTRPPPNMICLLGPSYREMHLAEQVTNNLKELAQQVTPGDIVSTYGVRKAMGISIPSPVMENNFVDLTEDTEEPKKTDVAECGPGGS
The data set can be described thus: BRD7-HiBiT protein abundance luminescence assay in HEK293 cells. Particulars: read-out: rel. DC50 (BRD7), 2 h.

The mark [4] stands for this setting: compound alone, spread in brackets, read-out: TR-FRET Q. IC50.

The Kd is the concentration at which binding is half-saturated. One may read the IC50 as the point on the concentration scale where inhibition reaches its midpoint. By GI50 is commonly meant the concentration giving 50% growth inhibition.

Like-named read-outs stand apart in the source and are kept apart here.

T1 sequence (Q9Y4B6 1073-1399 E1398S): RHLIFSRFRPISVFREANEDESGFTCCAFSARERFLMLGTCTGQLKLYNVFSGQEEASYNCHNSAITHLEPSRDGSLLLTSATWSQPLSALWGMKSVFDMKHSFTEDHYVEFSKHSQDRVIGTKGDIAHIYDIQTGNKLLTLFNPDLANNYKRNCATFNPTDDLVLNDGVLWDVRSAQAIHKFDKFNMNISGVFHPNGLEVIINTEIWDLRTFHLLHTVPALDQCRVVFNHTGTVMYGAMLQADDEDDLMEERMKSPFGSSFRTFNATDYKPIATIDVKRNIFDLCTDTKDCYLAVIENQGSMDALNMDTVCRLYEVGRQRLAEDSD
Chain of BTK (Q06187 2-659 limits assumed): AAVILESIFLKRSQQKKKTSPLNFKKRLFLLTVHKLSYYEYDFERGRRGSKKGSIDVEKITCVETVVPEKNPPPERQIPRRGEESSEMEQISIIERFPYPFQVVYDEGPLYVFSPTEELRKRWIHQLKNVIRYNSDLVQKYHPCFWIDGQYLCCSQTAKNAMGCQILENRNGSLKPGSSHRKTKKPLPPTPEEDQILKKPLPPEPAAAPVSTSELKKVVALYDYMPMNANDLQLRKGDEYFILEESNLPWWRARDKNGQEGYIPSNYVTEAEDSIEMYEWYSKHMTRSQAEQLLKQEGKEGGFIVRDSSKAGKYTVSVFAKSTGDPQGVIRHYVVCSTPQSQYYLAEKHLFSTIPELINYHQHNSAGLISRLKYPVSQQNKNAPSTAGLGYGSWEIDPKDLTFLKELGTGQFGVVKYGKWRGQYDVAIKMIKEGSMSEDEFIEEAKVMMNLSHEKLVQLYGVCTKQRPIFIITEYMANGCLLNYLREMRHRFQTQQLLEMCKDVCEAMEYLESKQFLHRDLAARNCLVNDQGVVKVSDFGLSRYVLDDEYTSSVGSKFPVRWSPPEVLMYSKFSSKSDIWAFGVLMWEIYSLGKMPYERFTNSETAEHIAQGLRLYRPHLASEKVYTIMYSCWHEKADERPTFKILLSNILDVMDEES
Text for BRD7: HEK293/BRD9-HiBiT pools (PROMEGA # CS3023120) and HEK293/BRD7-HiBiT pools (PROMEGA # CS3023124) were purchased from Promega. We performed clonal selection for HEK293/BRD9-HiBiT cell line using single-cell sorting and screening for HiBiT expression using Nano-Glo HiBiT Lytic Detection System (Promega # N3030). The HEK293/BRD9-HiBiT clone and HEK293/BRD7-HiBiT pool to perform standard HiBiT assays.

As for `CC(=O)NCCOCCOCCOCCOCCOCCOCCC(=O)N1CCN(c2ccc3c(NCCN)nc(C4(c5ccc(Cl)cc5)CCCC4)nc3c2)CC1` [compound 15], on DCAF1(WDR) [1], the dissociation constant (Kd) was 20 nM. The IC50 on DCAF1(WDR) [2] (setting [4]) stood at 20 nM.
Take `NC(=O)C[C@H](NC(=O)c1c[nH]nc1-c1ccc(Cl)cc1F)c1ccc(F)c(Cl)c1` [OICR-8268]: the “effect of co-treatment on DBr-1 mediated BRD9 degradation” value on BRD9 is listed as “did not affect the degradation efficacy of DBr-1”.
For the compound `Cc1c(NC(=O)N2CC(O)(CC(C)(C)C)C2)cc(F)cc1-c1ncnc2[nH]c(-c3cnn(CC(=O)N4CCC5(CCNCC5)CC4)c3)cc12` [compound 19], the GI50 at 24 h in data set [3] (read-out: GI50) is > 25000 nM. The “Max dose w/ Gating Viability >25%” value in the data set on TMD8 BTK-GFP/mCh cells is listed as 25. In addition, on BTK, the “max. BTK degradation (%)” value was 0% and the DC50 is > 25000 nM.
On to `COc1cc(-c2cn(C)c(=O)c3cnccc23)c(OC)cc1CN1CCC(OCCCCCC(=O)N2CCN(c3ccc4c(NCCN(C)C)nc(C5(c6ccc(Cl)cc6)CCCCC5)nc4c3)CC2)CC1` [DBr-1-N], for which the “relative reduction in affinity compared to DBr-1, SPR” value at DCAF1(WDR) [1] was found to be 27 fold. For the same compound, at DCAF1(WDR) [2], the “relative reduction in affinity compared to DBr-1, TR-FRET” value is given as 41 fold. For the same compound, the concentration for half-maximal inhibition (IC50) on DCAF1(WDR) [2] (read-out: IC50 in TR-FRET assays (response to reviewers)) amounted to 812 nM.
Take `Cc1c(NC(=O)c2ccc(C(C)(C)O)cc2F)cc(F)cc1-c1ncnc2[nH]c(-c3ccc(CN4CCC5(CCNCC5)CC4)cc3)cc12` [compound 18, reference compound]: the 50% growth inhibitory concentration (GI50) at 24 h is 9540 nM in data set [3] (read-out: Abs GI50) and 7560 nM in data set [3] (read-out: GI50). In addition, the “Max dose w/ Gating Viability >25%” value with TMD8 BTK-GFP/mCh cells was found to be 25. The DC50 at BTK was found to be 7890 nM.
For `C#CCOCC(=O)N1CCN(c2ccc3c(NCCN)nc(C4(c5ccc(Cl)cc5)CCCCC4)nc3c2)CC1` [compound 16], the Kd at DCAF1(WDR) [1] came out at 50 nM. Further, the 50% inhibitory concentration (IC50) at DCAF1(WDR) [2] (setting [4]) is 10 nM.
For `COc1cc(-c2cn(C)c(=O)c3cnccc23)c(OC)cc1CN(C)CC(=O)NCCOCCOCCNc1cccc2c1C(=O)N(C1CCC(=O)NC1=O)C2=O` (centres unmarked) [dBRD9], the DC50 at BRD7 is > 10000 nM.
